This assay deals with T1, mTOR (Homo sapiens, UniProt P42345).
T1 construct: FLAG; made in house
The assay is described as follows: In Vitro mTOR Kinase Assay (Echo), Test (a)(ii). It counts as biochemical. The text has this: (a)(ii) In Vitro mTOR Kinase Assay (Echo)
The assay used AlphaScreen technology (Gray et al., Analytical Biochemistry, 2003, 313: 234-245) to determine the ability of test compounds to inhibit phosphorylation by recombinant mTOR.
A C-terminal truncation of mTOR encompassing amino acid residues 1362 to 2549 of mTOR (EMBL Accession No. L34075) was stably expressed as a FLAG-tagged fusion in HEK293 cells as described by Vilella-Bach et al., […], 1999, 274, 4266-4272. The HEK293 FLAG-tagged mTOR (1362-2549) stable cell line was routinely maintained at 37° C. with 5% CO2 up to a confluency of 70-90% in Dulbecco's modified Eagle's growth medium (DMEM; Invitrogen Limited, Paisley, UK Catalogue No. 41966-029) containing 10% heat-inactivated foetal calf serum (FCS; Sigma, Poole, Dorset, UK, Catalogue No. F0392), 1% L-glutamine (Gibco, Catalogue No. 25030-024) and 2 mg/ml Geneticin (G418 sulfate; Invitrogen Limited, UK Catalogue No. 1013 1-027). Following expression in the mammalian HEK293 cell line, expressed protein was purified using the FLAG epitope tag using standard purification techniques.
Aliquots (120 nl […]) of each compound dilution were acoustically dispensed placed using a Labcyte Echo 550 into a well of a Greiner 384-well low volume (LV) white polystyrene plate (Greiner Bio-one).
These assay solutions were incubated for 2 hours at room temperature.
Each reaction was stopped by the addition of […] of a mixture of EDTA (50 mM), bovine serum albumin (BSA; 0.5 mg/mL) and Tris-HCl pH 7.4 buffer (50 mM) containing p70 S6 Kinase (T389) 1A5 Monoclonal Antibody (Cell Signalling Technology, Catalogue No. 9206B) and AlphaScreen Streptavidin donor and Protein A acceptor beads (200 ng; Perkin Elmer, Catalogue No. 6760002B and 6760137R respectively) were added and the assay plates were left overnight at room temperature in the dark. The resultant signals arising from laser light excitation at 680 nm were read using a Packard Envision instrument.
The phosphorylated biotinylated peptide that is associated with AlphaScreen Streptavidin donor beads forms a complex with the p70 S6 Kinase (T389) 1A5 Monoclonal Antibody that is associated with Alphascreen Protein A acceptor beads. Upon laser light excitation at 680 nm, the donor bead: acceptor bead complex produces a signal that can be measured. Accordingly, the presence of mTOR kinase activity results in an assay signal. In the presence of an mTOR kinase inhibitor, signal strength is reduced.
mTOR enzyme inhibition for a given test compound was expressed as an IC50 value.

Setting [1] is: read-out: mTOR Kinase Assay (Echo).
The mark [2] stands for this setting: table of enzyme assay Test (a)(ii), read-out: Test (a)(ii) IC50.

pIC50: −log10 of the molar value. Read-outs that look alike come from different tables or passages of the source.

Results on 23 compounds are retold here after patent US20090018134A1, “Compounds - 945” (AstraZeneca AB, priority 2007, published 2009).

T1 sequence (P42345 1362-2549): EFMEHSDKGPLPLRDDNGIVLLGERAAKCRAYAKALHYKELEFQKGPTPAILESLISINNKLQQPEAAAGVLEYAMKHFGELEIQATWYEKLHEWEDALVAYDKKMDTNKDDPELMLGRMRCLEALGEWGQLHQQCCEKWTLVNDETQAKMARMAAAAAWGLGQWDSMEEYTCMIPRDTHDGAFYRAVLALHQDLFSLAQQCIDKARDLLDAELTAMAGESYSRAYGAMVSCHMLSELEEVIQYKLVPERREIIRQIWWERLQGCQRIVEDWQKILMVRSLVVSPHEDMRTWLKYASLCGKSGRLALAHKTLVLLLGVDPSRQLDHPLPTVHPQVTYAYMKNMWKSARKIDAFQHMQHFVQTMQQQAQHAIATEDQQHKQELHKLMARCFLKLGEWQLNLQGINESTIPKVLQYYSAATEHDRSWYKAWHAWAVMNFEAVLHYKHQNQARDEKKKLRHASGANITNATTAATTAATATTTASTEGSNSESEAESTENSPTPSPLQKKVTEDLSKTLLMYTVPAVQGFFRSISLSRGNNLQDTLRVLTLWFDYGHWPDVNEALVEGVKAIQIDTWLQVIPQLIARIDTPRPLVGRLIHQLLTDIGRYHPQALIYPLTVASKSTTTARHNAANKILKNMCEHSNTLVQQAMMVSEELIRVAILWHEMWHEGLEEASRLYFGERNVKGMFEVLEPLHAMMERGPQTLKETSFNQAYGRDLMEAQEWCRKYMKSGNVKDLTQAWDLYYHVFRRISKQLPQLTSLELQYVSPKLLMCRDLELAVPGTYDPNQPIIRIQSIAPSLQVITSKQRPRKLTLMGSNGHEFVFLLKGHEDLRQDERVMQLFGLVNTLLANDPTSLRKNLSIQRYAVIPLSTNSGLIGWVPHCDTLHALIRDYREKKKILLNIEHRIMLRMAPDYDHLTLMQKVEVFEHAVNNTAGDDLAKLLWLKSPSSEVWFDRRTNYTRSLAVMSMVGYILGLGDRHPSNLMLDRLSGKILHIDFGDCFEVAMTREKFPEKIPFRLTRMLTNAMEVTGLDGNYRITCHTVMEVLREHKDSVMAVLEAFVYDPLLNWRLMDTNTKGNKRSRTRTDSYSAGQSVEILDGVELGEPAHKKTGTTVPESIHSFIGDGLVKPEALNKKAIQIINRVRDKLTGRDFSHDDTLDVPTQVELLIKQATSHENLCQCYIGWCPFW

As to `COc1ccc(NC(=O)Nc2ccc(-c3nc(N4CCOC[C@@H]4C)cc(C4(S(C)(=O)=O)CC4)n3)cc2)cn1` [Example 2o, 3-(6-methoxypyridin-3-yl)-1-[4-[4-[(3S)-3-methylmorpholin-4-yl]-6-(1-methylsulfonylcyclopropyl)pyrimidin-2-yl]phenyl]urea], the pIC50 under setting [1] was 9.07 and the pIC50 under setting [2] is 9.39.

With `C[C@H]1COCCN1c1cc(C2(S(C)(=O)=O)CC2)nc(-c2ccc(NC(=O)Nc3ccc(F)cc3)cc2)n1` [Example 2p, 3-(4-fluorophenyl)-1-[4-[4-[(3S)-3-methylmorpholin-4-yl]-6-(1-methylsulfonylcyclopropyl)pyrimidin-2-yl]phenyl]urea], under setting [1], the pIC50 is 8.57.

In the case of `C[C@H]1COCCN1c1cc(C2(S(C)(=O)=O)CC2)nc(-c2ccc(NC(=O)Nc3ccc(F)c(F)c3)cc2)n1` [Example 2q, 3-(3,4-difluorophenyl)-1-[4-[4-[(3S)-3-methylmorpholin-4-yl]-6-(1-methylsulfonylcyclopropyl)pyrimidin-2-yl]phenyl]urea], the pIC50 is, setting by setting: under setting [1], 9.00; under setting [2], 9.42.

For `Cc1ccc(NC(=O)Nc2ccc(-c3nc(N4CCOC[C@@H]4C)cc(C4(S(C)(=O)=O)CC4)n3)cc2)cc1` [Example 2r, 1-[4-[4-[(3S)-3-methylmorpholin-4-yl]-6-(1-methylsulfonylcyclopropyl)pyrimidin-2-yl]phenyl]-3-(4-methylphenyl)urea], the pIC50 reads like this: under setting [1], 9.18; under setting [2], 8.99.

Regarding `C[C@H]1COCCN1c1cc(C2(S(C)(=O)=O)CC2)nc(-c2ccc(NC(=O)Nc3ccc(Cl)cc3)cc2)n1` [Example 2s, 3-(4-chlorophenyl)-1-[4-[4-[(3S)-3-methylmorpholin-4-yl]-6-(1-methylsulfonylcyclopropyl)pyrimidin-2-yl]phenyl]urea], the pIC50 is, setting by setting: under setting [1], 8.86; under setting [2], 8.81.

Turning to `COc1ccc(NC(=O)Nc2ccc(-c3nc(N4CCOC[C@@H]4C)cc(C4(S(C)(=O)=O)CC4)n3)cc2)cc1` [Example 2t, 3-(4-methoxyphenyl)-1-[4-[4-[(3S)-3-methylmorpholin-4-yl]-6-(1-methylsulfonylcyclopropyl)pyrimidin-2-yl]phenyl]urea], the pIC50 was 8.84 under setting [1] and 9.18 under setting [2].

Regarding `Cc1cc(NC(=O)Nc2ccc(-c3nc(N4CCOC[C@@H]4C)cc(C4(S(C)(=O)=O)CC4)n3)cc2)no1` [Example 2u, 1-[4-[4-[(3S)-3-methylmorpholin-4-yl]-6-(1-methylsulfonylcyclopropyl)pyrimidin-2-yl]phenyl]-3-(5-methyl-1,2-oxazol-3-yl)urea], under setting [1], the pIC50 is 8.93.

`C[C@H]1COCCN1c1cc(C2(S(C)(=O)=O)CC2)nc(-c2ccc(NC(=O)Nc3ccc(F)cn3)cc2)n1` [Example 2v, 3-(5-fluoropyridin-2-yl)-1-[4-[4-[(3S)-3-methylmorpholin-4-yl]-6-(1-methylsulfonylcyclopropyl)pyrimidin-2-yl]phenyl]urea]: under setting [1], the pIC50 was 8.06.

For `C[C@H]1COCCN1c1cc(C2(S(C)(=O)=O)CC2)nc(-c2ccc(NC(=O)NCC(C)(C)CO)cc2)n1` [Example 2w, 3-(3-hydroxy-2,2-dimethylpropyl)-1-[4-[4-[(3S)-3-methylmorpholin-4-yl]-6-(1-methylsulfonylcyclopropyl)pyrimidin-2-yl]phenyl]urea], the pIC50 under setting [1] was 7.16.

Regarding `C[C@H]1COCCN1c1cc(C2(S(C)(=O)=O)CC2)nc(-c2ccc(NC(=O)NCCC#N)cc2)n1` [Example 2x, 3-(2-cyanoethyl)-1-[4-[4-[(3S)-3-methylmorpholin-4-yl]-6-(1-methylsulfonylcyclopropyl)pyrimidin-2-yl]phenyl]urea], the pIC50 under setting [1] was 8.79.

For `C[C@H]1COCCN1c1cc(C2(S(C)(=O)=O)CC2)nc(-c2ccc(NC(=O)NCCN3CCCC3)cc2)n1` [Example 2y, 1-[4-[4-[(3S)-3-methylmorpholin-4-yl]-6-(1-methylsulfonylcyclopropyl)pyrimidin-2-yl]phenyl]-3-(2-pyrrolidin-1-ylethyl)urea], under setting [1], the pIC50 was 6.64.

In the case of `C[C@H]1COCCN1c1cc(C2(S(C)(=O)=O)CC2)nc(-c2ccc(NC(=O)NCC(O)C(F)(F)F)cc2)n1` (stereo partly drawn) [Example 2z, 1-[4-[4-[(3S)-3-methylmorpholin-4-yl]-6-(1-methylsulfonylcyclopropyl)pyrimidin-2-yl]phenyl]-3-(3,3,3-trifluoro-2-hydroxypropyl)urea], under setting [1], the pIC50 is 7.74.

In the case of `C[C@H]1COCCN1c1cc(C2(S(=O)(=O)C3CC3)CC2)nc(-c2ccc(NC(=O)NC3CCC3)cc2)n1` [Example 3a, 3-cyclobutyl-1-[4-[4-(1-cyclopropylsulfonylcyclopropyl)-6-[(3S)-3-methylmorpholin-4-yl]pyrimidin-2-yl]phenyl]urea], the pIC50 under setting [1] was 8.35.

On to `C[C@H]1COCCN1c1cc(C2(S(=O)(=O)C3CC3)CC2)nc(-c2ccc(NC(=O)Nc3ccccn3)cc2)n1` [Example 3b, 1-[4-[4-(1-cyclopropylsulfonylcyclopropyl)-6-[(3S)-3-methylmorpholin-4-yl]pyrimidin-2-yl]phenyl]-3-pyridin-2-yl-urea], for which the pIC50 under setting [1] was 8.41.

For the compound `CC(C)CNC(=O)Nc1ccc(-c2nc(N3CCOC[C@@H]3C)cc(C3(S(=O)(=O)C4CC4)CC3)n2)cc1` [Example 3c, 1-[4-[4-(1-cyclopropylsulfonylcyclopropyl)-6-[(3S)-3-methylmorpholin-4-yl]pyrimidin-2-yl]phenyl]-3-(2-methylpropyl)urea], under setting [1], the pIC50 is 7.91.

Consider `CC(C)NC(=O)Nc1ccc(-c2nc(N3CCOC[C@@H]3C)cc(C3(S(=O)(=O)C4CC4)CC3)n2)cc1` [Example 3d, 1-[4-[4-(1-cyclopropylsulfonylcyclopropyl)-6-[(3S)-3-methylmorpholin-4-yl]pyrimidin-2-yl]phenyl]-3-propan-2-yl-urea], for which the pIC50 under setting [1] is 7.87.

As to `CCNC(=O)Nc1ccc(-c2nc(N3CCOC[C@@H]3C)cc(C3(S(=O)(=O)C4CC4)CC3)n2)cc1` [Example 3e, 3-[4-[4-(1-cyclopropylsulfonylcyclopropyl)-6-[(3S)-3-methylmorpholin-4-yl]pyrimidin-2-yl]phenyl]-1-ethyl-urea], the pIC50 under setting [1] is 8.78.

For the compound `C[C@H]1COCCN1c1cc(C2(S(=O)(=O)C3CC3)CC2)nc(-c2ccc(NC(=O)NCCN(C)C)cc2)n1` [Example 3f, 1-[4-[4-(1-cyclopropylsulfonylcyclopropyl)-6-[(3S)-3-methylmorpholin-4-yl]pyrimidin-2-yl]phenyl]-3-(2-dimethylaminoethyl)urea], the pIC50 under setting [1] is 7.67.

As for `CCCNC(=O)Nc1ccc(-c2nc(N3CCOC[C@@H]3C)cc(C3(S(=O)(=O)C4CC4)CC3)n2)cc1` [Example 3h, 3-[4-[4-(1-cyclopropylsulfonylcyclopropyl)-6-[(3S)-3-methylmorpholin-4-yl]pyrimidin-2-yl]phenyl]-1-propyl-urea], the pIC50 under setting [1] was 7.78.

`CNC(=O)Nc1ccc(-c2nc(N3CCOC[C@@H]3C)cc(C3(S(=O)(=O)C4CC4)CC3)n2)cc1` [Example 3i, 1-[4-[4-(1-cyclopropylsulfonylcyclopropyl)-6-[(3S)-3-methylmorpholin-4-yl]pyrimidin-2-yl]phenyl]-3-methyl-urea]: the pIC50 under setting [1] is 9.03.

Turning to `C[C@H]1COCCN1c1cc(C2(S(=O)(=O)C3CC3)CC2)nc(-c2ccc(NC(=O)Nc3ccc(C(F)(F)F)cc3)cc2)n1` [Example 3j, 1-[4-[4-(1-cyclopropylsulfonylcyclopropyl)-6-[(3S)-3-methylmorpholin-4-yl]pyrimidin-2-yl]phenyl]-3-[4-(trifluoromethyl)phenyl]urea], the pIC50 under setting [1] is 8.37.

Consider `C[C@H]1COCCN1c1cc(C2(S(=O)(=O)C3CC3)CC2)nc(-c2ccc(NC(=O)NC(C)(C)CO)cc2)n1` [Example 3k, 1-[4-[4-(1-cyclopropylsulfonylcyclopropyl)-6-[(3S)-3-methylmorpholin-4-yl]pyrimidin-2-yl]phenyl]-3-(1-hydroxy-2-methyl-propan-2-yl)urea], for which the pIC50 under setting [1] is 8.64.

On to `C[C@H]1COCCN1c1cc(C2(S(=O)(=O)C3CC3)CC2)nc(-c2ccc(NC(=O)NCCCO)cc2)n1` [Example 3l, 1-[4-[4-(1-cyclopropylsulfonylcyclopropyl)-6-[(3S)-3-methylmorpholin-4-yl]pyrimidin-2-yl]phenyl]-3-(3-hydroxypropyl)urea], for which, under setting [1], the pIC50 is 8.59.
